Source: patent US6737383B1, “Herbicidal oxadiazolidines” (priority 1999, dated 2004)

Assays:
[1] = tested on: wild oat; assay: Test B pre/postemergence wild oat; assay type: in vivo, Avena fatua; conditions: for Wild oats plant response rating: scale of 0 to 10 where 0 is no effect and 10 is complete control
Procedure, shortened: (§1)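 Test chemicals in a non-phytotoxic solvent mixture with surfactant were sprayed preemergence onto planted seeds and postemergence onto plants 2 to 18 cm tall (1- to 4-leaf stage). After twelve to sixteen days in a greenhouse, injury was visually rated against untreated controls from 0 (no effect) to 10 (complete control).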

[2] = tested on: soybean; assay: Test B pre/postemergence soybean; assay type: in vivo, Glycine max; conditions: for Soybean plant response rating: scale of 0 to 10 where 0 is no effect and 10 is complete control
Procedure, shortened: as §1

[3] = tested on: wheat; assay: Test B pre/postemergence wheat; assay type: in vivo, Triticum aestivum; conditions: for Wheat plant response rating: scale of 0 to 10 where 0 is no effect and 10 is complete control
Procedure, shortened: as §1

[4] = tested on: velvetleaf; assay: Test B pre/postemergence velvetleaf; assay type: in vivo, Abutilon theophrasti; conditions: for Velvetleaf plant response rating: scale of 0 to 10 where 0 is no effect and 10 is complete control
Procedure, shortened: as §1

[5] = tested on: cocklebur; assay: Test B pre/postemergence cocklebur; assay type: in vivo, Xanthium strumarium; conditions: for Cocklebur plant response rating: scale of 0 to 10 where 0 is no effect and 10 is complete control
Procedure, shortened: as §1

[6] = tested on: crabgrass; assay: Test B pre/postemergence crabgrass; assay type: in vivo, Digitaria sanguinalis; conditions: for Crabgrass plant response rating: scale of 0 to 10 where 0 is no effect and 10 is complete control
Procedure, shortened: as §1

[7] = tested on: duck salad; assay: Test B flood test duck salad; assay type: in vivo, Heteranthera limosa; conditions: Pre-emergence
Procedure, shortened: (§2)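 Flood test on plants grown to the 2-leaf stage; treated plants kept in greenhouse twelve to sixteen days, then visually rated against controls on a 0 (no effect) to 10 (complete control) scale.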

[8] = tested on: smallflower flatsedge; assay: Test B flood test smallflower flatsedge; assay type: in vivo, Cyperus difformis; conditions: Pre-emergence
Procedure, shortened: as §2

[9] = tested on: giant foxtail; assay: Test B pre/postemergence giant foxtail; assay type: in vivo, Setaria faberii; conditions: for Giant foxtail plant response rating: scale of 0 to 10 where 0 is no effect and 10 is complete control
Procedure, shortened: as §1

[10] = tested on: pigweed; assay: Test B pre/postemergence pigweed; assay type: in vivo, Amaranthus retroflexus; conditions: for Redroot pigweed plant response rating: scale of 0 to 10 where 0 is no effect and 10 is complete control
Procedure, shortened: as §1

[11] = tested on: purple nutsedge; assay: Test B pre/postemergence purple nutsedge; assay type: in vivo, Cyperus rotundus; conditions: for Nutsedge plant response rating: scale of 0 to 10 where 0 is no effect and 10 is complete control
Procedure, shortened: as §1

[12] = tested on: morningglory; assay: Test B pre/postemergence morningglory; assay type: in vivo, Ipomoea hederacea; conditions: for Morningglory plant response rating: scale of 0 to 10 where 0 is no effect and 10 is complete control
Procedure, shortened: as §1

[13] = tested on: rape; assay: Test B pre/postemergence rape; assay type: in vivo, Brassica napus; conditions: for Rape plant response rating: scale of 0 to 10 where 0 is no effect and 10 is complete control
Procedure, shortened: as §1

[14] = tested on: corn; assay: Test B pre/postemergence corn; assay type: in vivo, Zea mays; conditions: for Corn plant response rating: scale of 0 to 10 where 0 is no effect and 10 is complete control
Procedure, shortened: as §1

[15] = tested on: rice; assay: Test B flood test rice; assay type: in vivo, Oryza sativa; conditions: Pre-emergence
Procedure, shortened: as §2

[16] = tested on: bedstraw; assay: Test B pre/postemergence bedstraw; assay type: in vivo, Galium aparine; conditions: for Bedstraw plant response rating: scale of 0 to 10 where 0 is no effect and 10 is complete control
Procedure, shortened: as §1

[17] = Postemergence, Rate 125 g/ha, scale 0 to 10, 0 is no effect, 10 is complete control
[18] = Postemergence, Rate 250 g/ha, scale 0 to 10, 0 is no effect, 10 is complete control
[19] = Preemergence, Rate 62 g/ha, scale 0 to 10 (0 no effect, 10 complete control)
[20] = Rate 500 g/ha, Postemergence, scale 0 to 10, 0 no effect, 10 complete control
[21] = Rate 62 g/ha, flood test species, visual evaluation after twelve to sixteen days
[22] = Rate 125 g/ha, flood test species, scale 0 to 10 where 0 is no effect and 10 is complete control
[23] = Rate 250 g/ha, flood-test species, scale 0 to 10, 0 is no effect, 10 is complete control
[24] = Rate 500 g/ha, flood test species, scale 0 to 10 (0 no effect, 10 complete control)

CC(C)N(C(=O)n1oc(=O)n(C)c1=O)c1ccc(F)cc1F [Compound 368]
Plant response rating, Wild oats [1, 17]: 0 | Plant response rating, Wild oats [1, 18]: 3 | Plant response rating, Wild oats [1, 19]: 4 | Wild oats plant response rating (0 to 10 scale) ([1]; Preemergence, Rate 125 g/ha): 9 | Wild oats plant response rating ([1]; Preemergence, Rate 250 g/ha): 10 | Wild oats plant response rating ([1]; Preemergence, Rate 500 g/ha): 10 | Wild oats plant response rating ([1]; Rate 62 g/ha, Postemergence): 0 | Plant response rating, Wild oats [1, 20]: 5 | Plant response rating, Soybean [2, 17]: 5 | Plant response rating, Soybean [2, 18]: 5 | Plant response rating, Soybean [2, 19]: 0 | Soybean plant response rating (0 to 10 scale) ([2]; Preemergence, Rate 125 g/ha): 2 | Soybean plant response rating ([2]; Preemergence, Rate 250 g/ha): 7 | Soybean plant response rating ([2]; Preemergence, Rate 500 g/ha): 8 | Soybean plant response rating ([2]; Rate 62 g/ha, Postemergence): 4 | Plant response rating, Soybean [2, 20]: 5 | Plant response rating, Wheat [3, 17]: 3 | Plant response rating, Wheat [3, 18]: 4 | Plant response rating, Wheat [3, 19]: 0 | Wheat plant response rating (0 to 10 scale) ([3]; Preemergence, Rate 125 g/ha): 4 | Wheat plant response rating ([3]; Preemergence, Rate 250 g/ha): 8 | Wheat plant response rating ([3]; Preemergence, Rate 500 g/ha): 10 | Wheat plant response rating ([3]; Rate 62 g/ha, Postemergence): 0 | Plant response rating, Wheat [3, 20]: 6 | Plant response rating, Velvetleaf [4, 17]: 0 | Plant response rating, Velvetleaf [4, 18]: 3 | Plant response rating, Velvetleaf [4, 19]: 4 | Velvetleaf plant response rating (0 to 10 scale) ([4]; Preemergence, Rate 125 g/ha): 7 | Velvetleaf plant response rating ([4]; Preemergence, Rate 250 g/ha): 10 | Velvetleaf plant response rating ([4]; Preemergence, Rate 500 g/ha): 10 | Velvetleaf plant response rating ([4]; Rate 62 g/ha, Postemergence): 0 | Plant response rating, Velvetleaf [4, 20]: 7 | Plant response rating, Cocklebur [5, 17]: 2 | Plant response rating, Cocklebur [5, 18]: 3 | Plant response rating, Cocklebur [5, 19]: 0 | Cocklebur plant response rating (0 to 10 scale) ([5]; Preemergence, Rate 125 g/ha): 0 | Cocklebur plant response rating ([5]; Preemergence, Rate 250 g/ha): 0 | Cocklebur plant response rating ([5]; Preemergence, Rate 500 g/ha): 0 | Cocklebur plant response rating ([5]; Rate 62 g/ha, Postemergence): 0 | Plant response rating, Cocklebur [5, 20]: 5 | Plant response rating, Crabgrass [6, 17]: 8 | Plant response rating, Crabgrass [6, 18]: 8 | Plant response rating, Crabgrass [6, 19]: 10 | Crabgrass plant response rating (0 to 10 scale) ([6]; Preemergence, Rate 125 g/ha): 10 | Crabgrass plant response rating ([6]; Preemergence, Rate 250 g/ha): 10 | Crabgrass plant response rating ([6]; Preemergence, Rate 500 g/ha): 10 | Crabgrass plant response rating ([6]; Rate 62 g/ha, Postemergence): 6 | Plant response rating, Crabgrass [6, 20]: 8 | Plant response rating, Ducksalad (0 to 10 scale, 0 is no effect, 10 is complete control) [7, 21]: 0 | Ducksalad plant response rating [7, 22]: 0 | Ducksalad plant response rating [7, 23]: 0 | Ducksalad plant response rating [7, 24]: 0 | Plant response rating, S. Flatsedge (0 to 10 scale, 0 is no effect, 10 is complete control) [8, 21]: 0 | S. Flatsedge plant response rating [8, 22]: 0 | S. Flatsedge plant response rating [8, 23]: 2 | S. Flatsedge plant response rating [8, 24]: 4 | Plant response rating, Giant foxtail [9, 17]: 8 | Plant response rating, Giant foxtail [9, 18]: 9 | Plant response rating, Giant foxtail [9, 19]: 10 | Giant foxtail plant response rating (0 to 10 scale) ([9]; Preemergence, Rate 125 g/ha): 10 | Giant foxtail plant response rating ([9]; Preemergence, Rate 250 g/ha): 10 | Giant foxtail plant response rating ([9]; Preemergence, Rate 500 g/ha): 10 | Giant foxtail plant response rating ([9]; Rate 62 g/ha, Postemergence): 8 | Plant response rating, Giant foxtail [9, 20]: 9 | Plant response rating, Redroot pigweed [10, 17]: 3 | Plant response rating, Redroot pigweed [10, 18]: 4 | Plant response rating, Redroot pigweed [10, 19]: 10 | Redroot pigweed plant response rating (0 to 10 scale) ([10]; Preemergence, Rate 125 g/ha): 10 | Redroot pigweed plant response rating ([10]; Preemergence, Rate 250 g/ha): 10 | Redroot pigweed plant response rating ([10]; Preemergence, Rate 500 g/ha): 10 | Redroot pigweed plant response rating ([10]; Rate 62 g/ha, Postemergence): 2 | Plant response rating, Redroot pigweed [10, 20]: 7 | Plant response rating, Nutsedge [11, 17]: 0 | Plant response rating, Nutsedge [11, 18]: 0 | Plant response rating, Nutsedge [11, 19]: 0 | Nutsedge plant response rating (0 to 10 scale) ([11]; Preemergence, Rate 125 g/ha): 2 | Nutsedge plant response rating ([11]; Preemergence, Rate 250 g/ha): 10 | Nutsedge plant response rating ([11]; Preemergence, Rate 500 g/ha): 10 | Nutsedge plant response rating ([11]; Rate 62 g/ha, Postemergence): 0 | Plant response rating, Nutsedge [11, 20]: 0 | Plant response rating, Morningglory [12, 17]: 4 | Plant response rating, Morningglory [12, 18]: 5 | Plant response rating, Morningglory [12, 19]: 0 | Morningglory plant response rating (0 to 10 scale) ([12]; Preemergence, Rate 125 g/ha): 1 | Morningglory plant response rating ([12]; Preemergence, Rate 250 g/ha): 3 | Morningglory plant response rating ([12]; Preemergence, Rate 500 g/ha): 5 | Morningglory plant response rating ([12]; Rate 62 g/ha, Postemergence): 2 | Plant response rating, Morningglory [12, 20]: 7 | Plant response rating, Rape [13, 17]: 0 | Plant response rating, Rape [13, 18]: 2 | Plant response rating, Rape [13, 19]: 0 | Rape plant response rating (0 to 10 scale) ([13]; Preemergence, Rate 125 g/ha): 0 | Rape plant response rating ([13]; Preemergence, Rate 250 g/ha): 6 | Rape plant response rating ([13]; Preemergence, Rate 500 g/ha): 10 | Rape plant response rating ([13]; Rate 62 g/ha, Postemergence): 0 | Plant response rating, Rape [13, 20]: 5 | Plant response rating, Corn [14, 17]: 5 | Plant response rating, Corn [14, 18]: 6 | Plant response rating, Corn [14, 19]: 3 | Corn plant response rating (0 to 10 scale) ([14]; Preemergence, Rate 125 g/ha): 6 | Corn plant response rating ([14]; Preemergence, Rate 250 g/ha): 7 | Corn plant response rating ([14]; Preemergence, Rate 500 g/ha): 10 | Corn plant response rating ([14]; Rate 62 g/ha, Postemergence): 0 | Plant response rating, Corn [14, 20]: 7 | Plant response rating, Rice (0 to 10 scale, 0 is no effect, 10 is complete control) [15, 21]: 0 | Rice plant response rating [15, 22]: 0 | Rice plant response rating [15, 23]: 0 | Rice plant response rating [15, 24]: 5 | Plant response rating, Bedstraw [16, 18]: 4 | Plant response rating, Bedstraw [16, 19]: 0 | Bedstraw plant response rating (0 to 10 scale) ([16]; Preemergence, Rate 125 g/ha): 2 | Bedstraw plant response rating ([16]; Preemergence, Rate 250 g/ha): 10 | Bedstraw plant response rating ([16]; Preemergence, Rate 500 g/ha): 10 | Bedstraw plant response rating ([16]; Rate 62 g/ha, Postemergence): 0
